Earlier results, collected in patent publication US20040147441A1, “Methods and reagents for preventing bacteremias” (priority 2002, published 2004).
≈ marks a conversion by molar mass, not a printed value.

Legend:
S. aureus Strain Smith = conditions: Mueller-Hinton Broth
[1] = system: S. aureus (methicillin susceptible); conditions: J. Antimicrob. Chemother. 48: 283-286, 2001
[2] = system: S. aureus (methicillin resistant)
[3] = system: S. pneumoniae (penicillin susceptible)
[4] = system: S. pneumoniae (penicillin resistant)
[5] = system: E. facium (vancomycin susceptible)
[6] = system: E. facium (vancomycin resistant)
[7] = system: E. facium (multidrug resistant); conditions: Mobarakai et al. 1994
[8] = system: E. faecalis (vancomycin susceptible)
C. Difficile = conditions: Dong et al. 1987
[9] = system: E. faecalis (strains K-99-34, K-00-184, and K-00-221); conditions: Rhee 2002

Aspartocin
MIC (no CaCl2) (S. aureus Strain Smith): 2 µg/mL
MIC (with CaCl2) (S. aureus Strain Smith): 1 µg/mL

Zaomycin
MIC (no CaCl2) (S. aureus Strain Smith): 10 µg/mL
MIC (with CaCl2) (S. aureus Strain Smith): 1 µg/mL

teicoplanin
MBC (minimal bactericidal concentration) [1]: 2.0 to 8.0 µg/mL
MIC (minimal growth inhibitory concentration) [1]: 0.5 to 4.0 µg/mL
MBC (minimal bactericidal concentration) [2]: 8.0 to 16.0 µg/mL
MIC (minimal growth inhibitory concentration) [2]: 2.0 to 4.0 µg/mL
MBC (minimal bactericidal concentration) [3]: MIC = <0.03; MBC = <0.03 μg/ml
MIC (minimal growth inhibitory concentration) [3]: MIC = <0.03; MBC = <0.03 μg/ml
MBC (minimal bactericidal concentration) [4]: MIC = <0.03; MBC = <0.03 μg/ml
MIC (minimal growth inhibitory concentration) [4]: MIC = <0.03; MBC = <0.03 μg/ml
MBC (minimal bactericidal concentration) (S. pyrogens): 0.06 to 0.25 µg/mL
MIC (minimal growth inhibitory concentration) (S. pyrogens): 0.03 to 0.06 µg/mL
MBC (minimal bactericidal concentration) [5]: 2.0 to 4.0 µg/mL
MIC (minimal growth inhibitory concentration) [5]: 0.25 to 0.5 µg/mL
MBC (minimal bactericidal concentration) [6]: MIC = >16.0; MBC = >16.0 μg/ml
MIC (minimal growth inhibitory concentration) [6]: MIC = >16.0; MBC = >16.0 μg/ml
MIC (minimal growth inhibitory concentration) [7]: MIC 8.0-1,024 μg/ml
MBC (minimal bactericidal concentration) [8]: 2.0 to 4.0 µg/mL
MIC (minimal growth inhibitory concentration) [8]: > 0.25 µg/mL

CCCCCCCCCC(=O)N[C@@H](Cc1c[nH]c2ccccc12)C(=O)N[C@H](CC(N)=O)C(=O)N[C@@H](CC(=O)O)C(=O)N[C@@H]1C(=O)NCC(=O)N[C@@H](CCCN)C(=O)N[C@@H](CC(=O)O)C(=O)N[C@H](C)C(=O)N[C@@H](CC(=O)O)C(=O)NCC(=O)N[C@H](CO)C(=O)N[C@@H]([C@H](C)CC(=O)O)C(=O)N[C@@H](CC(=O)c2ccccc2N)C(=O)O[C@@H]1C [daptomycin]
MIC (minimal growth inhibitory concentration) [7]: MIC = 2.0-4.0 μg/ml
MIC (minimal growth inhibitory concentration) (C. Difficile): MIC = 16.0 μg/ml
MIC (no CaCl2) (S. aureus Strain Smith): 1 µg/mL (≈ 0.617 µM)
MIC (with CaCl2) (S. aureus Strain Smith): 0.5 µg/mL (≈ 0.309 µM)

CC(C)C[C@@H]1NC(=O)[C@@H]2CCCN2C1=O [Cyclo(leu-pro), cyclo-(Leu-Pro)]
MIC (minimal growth inhibitory concentration) [9]: MIC = 12.5 μg/ml

CN[C@H](CC(C)C)C(=O)N[C@H]1C(=O)N[C@@H](CC(N)=O)C(=O)N[C@H]2C(=O)N[C@H]3C(=O)N[C@H](C(=O)N[C@H](C(=O)O)c4cc(O)cc(O)c4-c4cc3ccc4O)[C@H](O[C@H]3C[C@](C)(N)[C@@H](O)[C@H](C)O3)c3ccc(c(Cl)c3)Oc3cc2cc(c3O[C@@H]2O[C@H](CO)[C@@H](O)[C@H](O)[C@H]2O[C@H]2C[C@](C)(NCc3ccc(-c4ccc(Cl)cc4)cc3)[C@@H](O)[C@H](C)O2)Oc2ccc(cc2Cl)[C@H]1O [oritavancin]
MBC (minimal bactericidal concentration) [1]: 4.0 to 8.0 µg/mL
MIC (minimal growth inhibitory concentration) [1]: 2.0 to 4.0 µg/mL
MBC (minimal bactericidal concentration) [2]: 8.0 to 16.0 µg/mL
MIC (minimal growth inhibitory concentration) [2]: 2.0 to 4.0 µg/mL
MBC (minimal bactericidal concentration) [3]: MIC = <0.03; MBC = <0.03 μg/ml
MIC (minimal growth inhibitory concentration) [3]: MIC = <0.03; MBC = <0.03 μg/ml
MBC (minimal bactericidal concentration) [4]: MIC = <0.03; MBC = <0.03 μg/ml
MIC (minimal growth inhibitory concentration) [4]: MIC = <0.03; MBC = <0.03 μg/ml
MBC (minimal bactericidal concentration) (S. pyrogens): 0.5 to 1.0 µg/mL
MIC (minimal growth inhibitory concentration) (S. pyrogens): 0.12 to 0.25 µg/mL
MBC (minimal bactericidal concentration) [5]: 1.0 to 2.0 µg/mL
MIC (minimal growth inhibitory concentration) [5]: 0.12 to 0.25 µg/mL
MBC (minimal bactericidal concentration) [6]: 4.0 to 8.0 µg/mL
MIC (minimal growth inhibitory concentration) [6]: 1.0 to 2.0 µg/mL
MBC (minimal bactericidal concentration) [8]: 1.0 to 2.0 µg/mL
MIC (minimal growth inhibitory concentration) [8]: 0.5 to 1.0 µg/mL

Laspartomycin
MIC (no CaCl2) (S. aureus Strain Smith): 16 µg/mL
MIC (with CaCl2) (S. aureus Strain Smith): 2 µg/mL
